Laboratory results reported in the kinase profiling compilation of Christmann-Franck et al. (2016).

Tests used:
Assay in all cases: KINOMEscan competition binding
Settings in all cases: compound 10.0 µM
[1] = tested on: ABL1 (human), P00519 [E255K]
[2] = tested on: ABL1 (human), P00519 [Q252H]
[3] = tested on: ABL1 (human), P00519 [T315I]
[4] = molecular target: BMPR1A (human) (UniProt P36894)
[5] = molecular target: BTK (human) (UniProt Q06187)
[6] = molecular target: CAMK1 (human) (UniProt Q14012)
[7] = molecular target: CAMK2B (human) (UniProt Q13554)
[8] = molecular target: CDK15 (human) (UniProt Q96Q40)
[9] = molecular target: CDK5 (human) (UniProt Q00535)
[10] = molecular target: CDK8 (human) (UniProt P49336)
[11] = molecular target: CSF1R (human) (UniProt P07333)
[12] = molecular target: CSNK1A1L (human) (UniProt Q8N752)
[13] = tested on: EGFR (human), P00533 [P753S; 747-752 del]
[14] = molecular target: EPHA3 (human) (UniProt P29320)
[15] = molecular target: ERBB2 (human) (UniProt P04626)
[16] = molecular target: ERBB4 (human) (UniProt Q15303)
[17] = molecular target: FLT1 (human) (UniProt P17948)
[18] = molecular target: FRK (human) (UniProt P42685)
[19] = molecular target: IGF1R (human) (UniProt P08069)
[20] = molecular target: KDR (human) (UniProt P35968)
[21] = molecular target: LATS1 (human) (UniProt O95835)
[22] = molecular target: MAP2K6 (human) (UniProt P52564)
[23] = molecular target: MAP3K3 (human) (UniProt Q99759)
[24] = molecular target: MAP3K4 (human) (UniProt Q9Y6R4)
[25] = molecular target: MAPK1 (human) (UniProt P28482)
[26] = molecular target: MAPK10 (human) (UniProt P53779)
[27] = molecular target: MAPK3 (human) (UniProt P27361)
[28] = molecular target: MAPK4 (human) (UniProt P31152)
[29] = molecular target: MAPK6 (human) (UniProt Q16659)
[30] = molecular target: MAPK7 (human) (UniProt Q13164)
[31] = molecular target: MYO3A (human) (UniProt Q8NEV4)
[32] = molecular target: NUAK1 (human) (UniProt O60285)
[33] = molecular target: PRKAA2 (human) (UniProt P54646)
[34] = molecular target: RET (human) (UniProt P07949)
[35] = tested on: RET (human), P07949 [V804L]
[36] = molecular target: SIK1 (human) (UniProt P57059)
[37] = molecular target: SRC (human) (UniProt P12931)
[38] = molecular target: STK36 (human) (UniProt Q9NRP7)
[39] = molecular target: SYK (human) (UniProt P43405)
[40] = molecular target: TGFBR1 (human) (UniProt P36897)
[41] = molecular target: TNK2 (human) (UniProt Q07912)
[42] = molecular target: TYK2 JH1 catalytic (human) (UniProt P29597)
Sequence of TYK2 JH1 catalytic (human) (P29597 whole entry, looked up): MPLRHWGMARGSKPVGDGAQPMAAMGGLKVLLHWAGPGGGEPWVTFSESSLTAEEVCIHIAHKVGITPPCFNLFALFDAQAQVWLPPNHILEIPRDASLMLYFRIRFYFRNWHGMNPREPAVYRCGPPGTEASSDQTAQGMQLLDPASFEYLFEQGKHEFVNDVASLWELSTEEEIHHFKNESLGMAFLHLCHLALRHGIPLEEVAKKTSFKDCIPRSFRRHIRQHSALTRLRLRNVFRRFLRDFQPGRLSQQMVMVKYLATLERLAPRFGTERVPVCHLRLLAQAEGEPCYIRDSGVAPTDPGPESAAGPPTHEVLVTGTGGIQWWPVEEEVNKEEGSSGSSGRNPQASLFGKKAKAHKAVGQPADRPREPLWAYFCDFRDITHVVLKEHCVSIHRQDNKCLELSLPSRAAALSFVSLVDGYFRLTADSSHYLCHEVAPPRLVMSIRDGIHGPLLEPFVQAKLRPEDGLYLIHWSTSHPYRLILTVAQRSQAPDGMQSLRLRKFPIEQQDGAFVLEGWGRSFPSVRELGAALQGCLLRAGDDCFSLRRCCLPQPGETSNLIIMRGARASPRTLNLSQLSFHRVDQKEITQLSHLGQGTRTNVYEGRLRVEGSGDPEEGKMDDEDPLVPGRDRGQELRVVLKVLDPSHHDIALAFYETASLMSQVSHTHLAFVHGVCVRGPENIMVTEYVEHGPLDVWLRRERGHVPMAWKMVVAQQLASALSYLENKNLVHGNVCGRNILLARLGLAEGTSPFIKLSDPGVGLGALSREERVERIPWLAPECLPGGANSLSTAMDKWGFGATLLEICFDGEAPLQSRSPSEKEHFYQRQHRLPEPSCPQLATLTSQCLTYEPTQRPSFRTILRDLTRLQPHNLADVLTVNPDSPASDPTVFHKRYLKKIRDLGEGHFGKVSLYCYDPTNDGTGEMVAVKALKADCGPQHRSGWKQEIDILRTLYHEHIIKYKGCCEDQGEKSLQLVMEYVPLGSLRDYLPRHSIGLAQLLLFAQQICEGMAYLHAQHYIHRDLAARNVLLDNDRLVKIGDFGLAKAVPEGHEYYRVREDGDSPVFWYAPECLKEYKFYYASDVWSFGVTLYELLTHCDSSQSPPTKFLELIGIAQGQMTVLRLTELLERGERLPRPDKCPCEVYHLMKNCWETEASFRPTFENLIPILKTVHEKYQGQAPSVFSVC

Sequence of RET (human), P07949 [V804L] (P07949 whole entry V804L, looked up): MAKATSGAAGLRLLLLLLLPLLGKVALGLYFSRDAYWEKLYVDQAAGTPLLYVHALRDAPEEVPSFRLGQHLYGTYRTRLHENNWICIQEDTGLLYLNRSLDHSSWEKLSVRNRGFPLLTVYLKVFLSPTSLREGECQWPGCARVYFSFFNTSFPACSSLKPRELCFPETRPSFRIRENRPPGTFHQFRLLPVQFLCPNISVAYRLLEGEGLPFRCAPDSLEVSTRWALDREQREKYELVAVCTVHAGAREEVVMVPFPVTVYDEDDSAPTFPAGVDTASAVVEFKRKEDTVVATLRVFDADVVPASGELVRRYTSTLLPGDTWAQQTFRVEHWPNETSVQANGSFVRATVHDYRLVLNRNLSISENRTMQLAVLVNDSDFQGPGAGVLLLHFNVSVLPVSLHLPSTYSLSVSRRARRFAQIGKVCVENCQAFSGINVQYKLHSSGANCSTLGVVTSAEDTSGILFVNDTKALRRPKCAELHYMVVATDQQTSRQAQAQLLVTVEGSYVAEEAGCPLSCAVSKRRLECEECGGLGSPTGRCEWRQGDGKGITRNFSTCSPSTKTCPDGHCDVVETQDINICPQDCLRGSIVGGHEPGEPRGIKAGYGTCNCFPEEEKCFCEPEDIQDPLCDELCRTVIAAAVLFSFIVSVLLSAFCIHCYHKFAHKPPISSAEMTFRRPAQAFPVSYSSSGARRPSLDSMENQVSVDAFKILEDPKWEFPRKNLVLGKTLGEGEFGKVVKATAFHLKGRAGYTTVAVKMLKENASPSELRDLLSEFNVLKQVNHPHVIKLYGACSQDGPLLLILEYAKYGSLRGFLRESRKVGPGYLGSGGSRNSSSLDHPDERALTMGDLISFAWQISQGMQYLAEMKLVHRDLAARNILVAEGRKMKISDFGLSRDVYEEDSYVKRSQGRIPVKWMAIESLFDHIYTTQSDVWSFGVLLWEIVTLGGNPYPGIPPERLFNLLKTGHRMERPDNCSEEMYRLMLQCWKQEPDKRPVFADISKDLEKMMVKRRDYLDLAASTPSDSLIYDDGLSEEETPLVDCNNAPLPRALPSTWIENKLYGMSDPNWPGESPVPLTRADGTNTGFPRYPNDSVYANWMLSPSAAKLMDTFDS
Sequence of PRKAA2 (human) (P54646 whole entry, looked up): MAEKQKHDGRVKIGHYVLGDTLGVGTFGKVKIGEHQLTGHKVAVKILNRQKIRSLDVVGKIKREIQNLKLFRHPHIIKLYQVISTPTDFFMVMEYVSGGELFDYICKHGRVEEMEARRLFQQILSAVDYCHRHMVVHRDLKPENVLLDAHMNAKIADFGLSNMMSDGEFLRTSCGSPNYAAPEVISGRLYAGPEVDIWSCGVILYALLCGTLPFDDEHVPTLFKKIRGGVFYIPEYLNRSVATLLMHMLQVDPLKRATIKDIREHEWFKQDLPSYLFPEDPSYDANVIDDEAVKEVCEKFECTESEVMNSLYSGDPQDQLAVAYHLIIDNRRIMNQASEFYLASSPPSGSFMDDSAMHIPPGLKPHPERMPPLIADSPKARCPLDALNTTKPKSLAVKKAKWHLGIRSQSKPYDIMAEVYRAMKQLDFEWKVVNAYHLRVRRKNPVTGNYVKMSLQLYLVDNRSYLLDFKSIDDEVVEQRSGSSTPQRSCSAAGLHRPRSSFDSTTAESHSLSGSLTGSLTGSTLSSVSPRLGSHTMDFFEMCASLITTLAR
Sequence of MAPK3 (human) (P27361 whole entry, looked up): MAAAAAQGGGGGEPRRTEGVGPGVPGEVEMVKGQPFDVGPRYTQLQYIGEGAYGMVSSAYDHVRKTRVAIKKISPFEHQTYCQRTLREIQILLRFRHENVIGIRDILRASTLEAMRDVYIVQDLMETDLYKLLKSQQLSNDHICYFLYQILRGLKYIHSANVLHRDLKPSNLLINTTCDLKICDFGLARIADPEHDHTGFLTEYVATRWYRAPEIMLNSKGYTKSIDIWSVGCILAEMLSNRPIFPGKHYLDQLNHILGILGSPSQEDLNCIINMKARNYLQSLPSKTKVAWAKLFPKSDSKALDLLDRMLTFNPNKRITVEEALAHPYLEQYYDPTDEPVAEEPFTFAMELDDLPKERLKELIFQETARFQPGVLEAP
Sequence of ERBB2 (human) (P04626 whole entry, looked up): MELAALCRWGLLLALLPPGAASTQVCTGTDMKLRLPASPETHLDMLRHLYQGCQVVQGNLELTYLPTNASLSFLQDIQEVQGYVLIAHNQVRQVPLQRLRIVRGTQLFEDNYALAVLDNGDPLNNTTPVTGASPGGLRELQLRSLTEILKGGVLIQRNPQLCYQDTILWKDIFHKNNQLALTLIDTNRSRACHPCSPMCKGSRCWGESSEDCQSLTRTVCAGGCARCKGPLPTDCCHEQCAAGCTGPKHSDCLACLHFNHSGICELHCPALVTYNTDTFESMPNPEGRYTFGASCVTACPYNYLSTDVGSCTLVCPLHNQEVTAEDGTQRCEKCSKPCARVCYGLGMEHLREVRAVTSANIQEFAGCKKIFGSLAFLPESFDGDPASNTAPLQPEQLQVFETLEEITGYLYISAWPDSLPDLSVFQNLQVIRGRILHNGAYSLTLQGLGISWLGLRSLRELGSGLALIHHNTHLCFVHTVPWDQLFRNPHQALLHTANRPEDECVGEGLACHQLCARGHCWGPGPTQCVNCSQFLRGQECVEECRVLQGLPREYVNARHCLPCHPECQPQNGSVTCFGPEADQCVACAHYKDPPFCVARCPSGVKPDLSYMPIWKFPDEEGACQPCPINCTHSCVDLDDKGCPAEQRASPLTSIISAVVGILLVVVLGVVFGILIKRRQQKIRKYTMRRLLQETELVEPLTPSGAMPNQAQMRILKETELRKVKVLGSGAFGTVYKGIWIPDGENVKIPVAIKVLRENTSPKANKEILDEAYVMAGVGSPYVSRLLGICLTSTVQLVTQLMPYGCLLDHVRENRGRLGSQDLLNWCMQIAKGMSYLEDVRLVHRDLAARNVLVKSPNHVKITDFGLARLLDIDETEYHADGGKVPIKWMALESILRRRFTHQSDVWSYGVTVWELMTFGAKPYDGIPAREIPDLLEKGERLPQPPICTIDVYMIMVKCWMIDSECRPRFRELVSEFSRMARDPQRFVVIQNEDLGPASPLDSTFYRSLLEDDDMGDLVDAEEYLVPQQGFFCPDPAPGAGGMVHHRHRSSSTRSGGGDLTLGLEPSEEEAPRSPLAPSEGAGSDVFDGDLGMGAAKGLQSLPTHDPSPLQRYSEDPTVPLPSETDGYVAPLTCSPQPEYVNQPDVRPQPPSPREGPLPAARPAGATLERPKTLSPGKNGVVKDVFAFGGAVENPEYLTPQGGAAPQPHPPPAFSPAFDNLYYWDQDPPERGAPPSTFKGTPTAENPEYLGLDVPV
Sequence of FRK (human) (P42685 whole entry, looked up): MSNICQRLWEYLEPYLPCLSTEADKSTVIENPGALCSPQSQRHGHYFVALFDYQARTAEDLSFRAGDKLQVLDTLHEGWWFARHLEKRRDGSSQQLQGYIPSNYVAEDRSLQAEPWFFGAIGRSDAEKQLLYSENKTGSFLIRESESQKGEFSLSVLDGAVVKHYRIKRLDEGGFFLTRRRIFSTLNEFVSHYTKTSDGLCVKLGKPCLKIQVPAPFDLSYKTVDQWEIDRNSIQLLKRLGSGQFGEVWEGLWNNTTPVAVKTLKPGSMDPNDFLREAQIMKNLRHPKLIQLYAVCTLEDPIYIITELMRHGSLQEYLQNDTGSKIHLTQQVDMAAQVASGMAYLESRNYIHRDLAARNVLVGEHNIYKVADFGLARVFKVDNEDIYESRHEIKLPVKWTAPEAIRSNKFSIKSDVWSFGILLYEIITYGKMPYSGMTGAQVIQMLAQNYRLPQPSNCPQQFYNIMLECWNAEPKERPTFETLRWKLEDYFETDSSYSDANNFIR
Sequence of RET (human) (P07949 whole entry, looked up): as the sequence (P07949 whole entry V804L, looked up) above, with L804V counted along it

COc1cc(N2CCN(C)CC2)ccc1Nc1ncc2c(n1)N(C)c1ccccc1N(C)C2=O was tested. Which kinase still bound, per cent of control [1] did it give?
Its kinase still bound, per cent of control is 100%.

And the kinase still bound, per cent of control [2]?
Its kinase still bound, per cent of control is 100%.

And the kinase still bound, per cent of control [3]?
The kinase still bound, per cent of control was 100%.

And the kinase still bound, per cent of control [4]?
Its kinase still bound, per cent of control is 100%.

What about the kinase still bound, per cent of control [5] of the same compound?
The kinase still bound, per cent of control was 78%.

And the kinase still bound, per cent of control [6]?
The kinase still bound, per cent of control was 100%.

What about the kinase still bound, per cent of control [7] of the same compound?
Its kinase still bound, per cent of control is 92%.

What about the kinase still bound, per cent of control [8] of the same compound?
Its kinase still bound, per cent of control is 68%.

And the kinase still bound, per cent of control [9]?
Its kinase still bound, per cent of control is 100%.

What about the kinase still bound, per cent of control [10] of the same compound?
Its kinase still bound, per cent of control is 88%.

And the kinase still bound, per cent of control [11]?
Its kinase still bound, per cent of control is 27%.

And the kinase still bound, per cent of control [12]?
The kinase still bound, per cent of control was 100%.

What about the kinase still bound, per cent of control [13] of the same compound?
Its kinase still bound, per cent of control is 100%.

What about the kinase still bound, per cent of control [14] of the same compound?
Its kinase still bound, per cent of control is 81%.

And the kinase still bound, per cent of control [15]?
Its kinase still bound, per cent of control is 6.6%.

What about the kinase still bound, per cent of control [16] of the same compound?
Its kinase still bound, per cent of control is 88%.

And the kinase still bound, per cent of control [17]?
Its kinase still bound, per cent of control is 100%.

And the kinase still bound, per cent of control [18]?
Its kinase still bound, per cent of control is 51%.

What about the kinase still bound, per cent of control [19] of the same compound?
The kinase still bound, per cent of control was 100%.

And the kinase still bound, per cent of control [20]?
Its kinase still bound, per cent of control is 100%.

What about the kinase still bound, per cent of control [21] of the same compound?
The kinase still bound, per cent of control was 94%.

What about the kinase still bound, per cent of control [22] of the same compound?
The kinase still bound, per cent of control was 65%.

What about the kinase still bound, per cent of control [23] of the same compound?
The kinase still bound, per cent of control was 93%.

And the kinase still bound, per cent of control [24]?
Its kinase still bound, per cent of control is 100%.

What about the kinase still bound, per cent of control [25] of the same compound?
The kinase still bound, per cent of control was 100%.

And the kinase still bound, per cent of control [26]?
The kinase still bound, per cent of control was 85%.

And the kinase still bound, per cent of control [27]?
The kinase still bound, per cent of control was 100%.

What about the kinase still bound, per cent of control [28] of the same compound?
The kinase still bound, per cent of control was 100%.

And the kinase still bound, per cent of control [29]?
Its kinase still bound, per cent of control is 100%.

And the kinase still bound, per cent of control [30]?
The kinase still bound, per cent of control was 30%.

And the kinase still bound, per cent of control [31]?
Its kinase still bound, per cent of control is 74%.

And the kinase still bound, per cent of control [32]?
Its kinase still bound, per cent of control is 100%.

What about the kinase still bound, per cent of control [33] of the same compound?
Its kinase still bound, per cent of control is 94%.

What about the kinase still bound, per cent of control [34] of the same compound?
The kinase still bound, per cent of control was 100%.

And the kinase still bound, per cent of control [35]?
Its kinase still bound, per cent of control is 100%.

And the kinase still bound, per cent of control [36]?
The kinase still bound, per cent of control was 100%.

What about the kinase still bound, per cent of control [37] of the same compound?
Its kinase still bound, per cent of control is 88%.

And the kinase still bound, per cent of control [38]?
The kinase still bound, per cent of control was 88%.

What about the kinase still bound, per cent of control [39] of the same compound?
The kinase still bound, per cent of control was 99%.

And the kinase still bound, per cent of control [40]?
Its kinase still bound, per cent of control is 97%.

And the kinase still bound, per cent of control [41]?
The kinase still bound, per cent of control was 20%.

And the kinase still bound, per cent of control [42]?
The kinase still bound, per cent of control was 94%.

With COc1cc(N2CCC(O)CC2)ccc1Nc1ncc2c(n1)N1CCc3cccc(c31)C(=O)N2C as the compound, how does the kinase still bound, per cent of control [1] read?
The kinase still bound, per cent of control was 90%.

What about the kinase still bound, per cent of control [2] of the same compound?
Its kinase still bound, per cent of control is 100%.

And the kinase still bound, per cent of control [3]?
Its kinase still bound, per cent of control is 100%.

And the kinase still bound, per cent of control [4]?
The kinase still bound, per cent of control was 100%.

What about the kinase still bound, per cent of control [5] of the same compound?
The kinase still bound, per cent of control was 78%.

What about the kinase still bound, per cent of control [6] of the same compound?
The kinase still bound, per cent of control was 78%.

And the kinase still bound, per cent of control [7]?
The kinase still bound, per cent of control was 72%.

And the kinase still bound, per cent of control [8]?
The kinase still bound, per cent of control was 99%.

What about the kinase still bound, per cent of control [9] of the same compound?
Its kinase still bound, per cent of control is 86%.

What about the kinase still bound, per cent of control [10] of the same compound?
The kinase still bound, per cent of control was 100%.

What about the kinase still bound, per cent of control [11] of the same compound?
Its kinase still bound, per cent of control is 67%.

What about the kinase still bound, per cent of control [12] of the same compound?
The kinase still bound, per cent of control was 95%.

What about the kinase still bound, per cent of control [13] of the same compound?
The kinase still bound, per cent of control was 91%.

What about the kinase still bound, per cent of control [14] of the same compound?
The kinase still bound, per cent of control was 72%.

And the kinase still bound, per cent of control [15]?
The kinase still bound, per cent of control was 92%.

What about the kinase still bound, per cent of control [16] of the same compound?
The kinase still bound, per cent of control was 87%.

And the kinase still bound, per cent of control [17]?
The kinase still bound, per cent of control was 100%.

What about the kinase still bound, per cent of control [18] of the same compound?
Its kinase still bound, per cent of control is 81%.

And the kinase still bound, per cent of control [19]?
The kinase still bound, per cent of control was 100%.

And the kinase still bound, per cent of control [20]?
Its kinase still bound, per cent of control is 79%.

What about the kinase still bound, per cent of control [21] of the same compound?
The kinase still bound, per cent of control was 100%.

And the kinase still bound, per cent of control [22]?
The kinase still bound, per cent of control was 100%.

And the kinase still bound, per cent of control [23]?
Its kinase still bound, per cent of control is 94%.

And the kinase still bound, per cent of control [24]?
The kinase still bound, per cent of control was 84%.

What about the kinase still bound, per cent of control [25] of the same compound?
Its kinase still bound, per cent of control is 75%.

And the kinase still bound, per cent of control [26]?
Its kinase still bound, per cent of control is 42%.

And the kinase still bound, per cent of control [27]?
Its kinase still bound, per cent of control is 99%.

And the kinase still bound, per cent of control [28]?
Its kinase still bound, per cent of control is 100%.

What about the kinase still bound, per cent of control [29] of the same compound?
Its kinase still bound, per cent of control is 100%.

And the kinase still bound, per cent of control [30]?
The kinase still bound, per cent of control was 0.3%.

And the kinase still bound, per cent of control [31]?
The kinase still bound, per cent of control was 54%.

And the kinase still bound, per cent of control [32]?
The kinase still bound, per cent of control was 100%.

What about the kinase still bound, per cent of control [33] of the same compound?
The kinase still bound, per cent of control was 100%.

What about the kinase still bound, per cent of control [34] of the same compound?
Its kinase still bound, per cent of control is 100%.

And the kinase still bound, per cent of control [35]?
Its kinase still bound, per cent of control is 100%.

What about the kinase still bound, per cent of control [36] of the same compound?
The kinase still bound, per cent of control was 88%.

What about the kinase still bound, per cent of control [37] of the same compound?
The kinase still bound, per cent of control was 100%.

What about the kinase still bound, per cent of control [38] of the same compound?
Its kinase still bound, per cent of control is 100%.

What about the kinase still bound, per cent of control [39] of the same compound?
The kinase still bound, per cent of control was 100%.

What about the kinase still bound, per cent of control [40] of the same compound?
The kinase still bound, per cent of control was 100%.

And the kinase still bound, per cent of control [41]?
Its kinase still bound, per cent of control is 23%.

What about the kinase still bound, per cent of control [42] of the same compound?
The kinase still bound, per cent of control was 64%.
